From PubChem BioAssay AID248 (DTP/NCI, 2004)
Values joined by “and” are separate entries in the source; they are usually repeats but may differ in a detail not shown here. Identical values can stand only once. Inconclusive results and toxic doses are left out. No stated cut-off is given here; in the data, active means T/C of 150% or more; inactive means T/C below 125%.

System: L1210 leukemia ip in BDF1 mice, survival T/C
Assay: NCI In Vivo Anticancer Drug Screen. Data for tumor model L1210 Leukemia (intraperitoneal) in B6D2F1 (BDF1) mice
Details: endpoint: mean survival time, higher = longer survival
Protocol: The antitumor activity of compounds was measured in mice bearing transplantable tumors. Survival or tumor size were measured and the results are expressed as the measurement made in the treated group (T) divided by the measurement made in the vehicle treated control group (C). The tumor model used in this assay is L1210 Leukemia (intraperitoneal) in B6D2F1 (BDF1) mice

[1] = dose: 100.0 mg/kg/injection, schedule: Q01DX009 (ip), vehicle: Klucel (hydroxypropylcellulose) (HPC)
[2] = dose: 100.0 mg/kg/injection, schedule: Q04DX003 (ip), vehicle: Klucel (hydroxypropylcellulose) (HPC)
[3] = dose: 200.0 mg/kg/injection, schedule: Q01DX009 (ip), vehicle: Klucel (hydroxypropylcellulose) (HPC)
[4] = dose: 200.0 mg/kg/injection, schedule: Q04DX003 (ip), vehicle: Klucel (hydroxypropylcellulose) (HPC)
[5] = dose: 400.0 mg/kg/injection, schedule: Q01DX009 (ip), vehicle: Klucel (hydroxypropylcellulose) (HPC)
[6] = dose: 400.0 mg/kg/injection, schedule: Q04DX003 (ip), vehicle: Klucel (hydroxypropylcellulose) (HPC)
[7] = dose: 100.0 mg/kg/injection, schedule: Q01DX009 (ip), vehicle: saline with Tween-80
[8] = dose: 100.0 mg/kg/injection, schedule: Q04DX003 (ip), vehicle: saline with Tween-80
[9] = dose: 200.0 mg/kg/injection, schedule: Q01DX009 (ip), vehicle: saline with Tween-80
[10] = dose: 200.0 mg/kg/injection, schedule: Q04DX003 (ip), vehicle: saline with Tween-80
[11] = dose: 50.0 mg/kg/injection, schedule: Q01DX009 (ip), vehicle: Klucel (hydroxypropylcellulose) (HPC)
[12] = dose: 25.0 mg/kg/injection, schedule: Q01DX001 (ip), vehicle: saline
[13] = dose: 50.0 mg/kg/injection, schedule: Q01DX001 (ip), vehicle: saline
[14] = dose: 100.0 mg/kg/injection, schedule: Q01DX001 (ip), vehicle: saline
[15] = dose: 400.0 mg/kg/injection, schedule: Q04DX003 (ip), vehicle: saline with Tween-80
[16] = dose: 400.0 mg/kg/injection, schedule: Q01DX009 (ip), vehicle: saline with Tween-80
[17] = dose: 3.12 mg/kg/injection, schedule: Q01DX009 (ip), vehicle: Klucel (hydroxypropylcellulose) (HPC)
[18] = dose: 6.25 mg/kg/injection, schedule: Q01DX009 (ip), vehicle: Klucel (hydroxypropylcellulose) (HPC)
[19] = dose: 25.0 mg/kg/injection, schedule: Q04DX003 (ip), vehicle: saline
[20] = dose: 100.0 mg/kg/injection, schedule: Q04DX003 (ip), vehicle: saline
[21] = dose: 200.0 mg/kg/injection, schedule: Q04DX003 (ip), vehicle: saline
[22] = dose: 400.0 mg/kg/injection, schedule: Q04DX003 (ip), vehicle: saline
[23] = dose: 25.0 mg/kg/injection, schedule: Q04DX002 (ip), vehicle: saline with Tween-80
[24] = dose: 50.0 mg/kg/injection, schedule: Q04DX002 (ip), vehicle: saline with Tween-80
[25] = dose: 100.0 mg/kg/injection, schedule: Q04DX002 (ip), vehicle: saline with Tween-80

Measured: T/C

C[N+](C)(C)CCS(=O)(=O)[O-]
inactive: dose: 100.0 mg/kg/injection, schedule: Q01DX009 (ip), vehicle: saline 90 % of control | dose: 200.0 mg/kg/injection, schedule: Q01DX009 (ip), vehicle: saline 95 % of control | dose: 400.0 mg/kg/injection, schedule: Q01DX009 (ip), vehicle: saline 95 % of control

CCCCN1C(=O)CC(C23C(=O)N(CCCC)C(=O)C2CCc2ncccc23)C1=O (configuration not stated)
inactive: [1] 87 % of control | [2] 94 % of control | [3] 89 % of control | [4] 99 % of control | [5] 87 % of control | [6] 90 % of control

O=S(=O)(c1ccccc1)N1CCCCC1
inactive: [2] 100 % of control | [4] 97 % of control | [6] 100 % of control

Cc1nc2c(=O)n(C)c(=O)n(C)c2n1C
inactive: dose: 50.0 mg/kg/injection, schedule: Q01DX009 (ip), vehicle: saline with Tween-80 101 % of control | [7] 98 % of control | [8] 100 % of control | [9] 100 % of control | [10] 98 % of control

O=CN(N=O)c1ccccc1
inactive: dose: 75.0 mg/kg/injection, schedule: Q01DX001 (ip), vehicle: other 104 % of control | dose: 150.0 mg/kg/injection, schedule: Q01DX001 (ip), vehicle: other 97 % of control | dose: 300.0 mg/kg/injection, schedule: Q01DX001 (ip), vehicle: other 96 % of control and 104 % of control

CCC(c1ccc2cc(OC)ccc2c1)C(C(=O)O)C(=O)O (configuration not stated)
inactive: [11] 96 % of control | [1] 107 % of control | [3] 96 % of control

COc1c2c(c(OC(C)=O)c3c1C(=O)c1ccccc1C3=O)CCCC2
inactive: dose: 6.25 mg/kg/injection, schedule: Q01DX001 (ip), vehicle: saline 100 % of control | dose: 12.5 mg/kg/injection, schedule: Q01DX001 (ip), vehicle: saline 96 % of control | [12] 101 % of control | [13] 95 % of control | [14] 93 % of control

Cc1ccc(C(=O)N(N)C2CCCCC2)cc1
inactive: [8] 95 % of control | [10] 93 % of control | [15] 96 % of control

CN(C)CCCN1CCC2(CC[Si](C)(C)CC2)C1
inactive: [14] 94 % of control

Cc1ccc(S(=O)(=O)N(Cc2ccc([N+](=O)[O-])cc2)c2ccccc2)cc1
inactive: dose: 100.0 mg/kg/injection, schedule: Q01DX001 (ip), vehicle: carboxymethylcellulose (CMC) 103 % of control | dose: 200.0 mg/kg/injection, schedule: Q01DX001 (ip), vehicle: carboxymethylcellulose (CMC) 105 % of control | dose: 400.0 mg/kg/injection, schedule: Q01DX001 (ip), vehicle: carboxymethylcellulose (CMC) 100 % of control

CC(=O)Nc1ccn(CC(=O)c2ccco2)c(=O)n1
inactive: [7] 102 % of control | [8] 98 % of control | [9] 102 % of control | [10] 90 % of control | [16] 104 % of control | [15] 93 % of control

CCCCCn1cnc2c(=O)[nH]c(N)nc21
inactive: dose: 50.0 mg/kg/injection, schedule: Q01DX001 (ip), vehicle: Klucel (hydroxypropylcellulose) (HPC) 105 % of control | dose: 100.0 mg/kg/injection, schedule: Q01DX001 (ip), vehicle: Klucel (hydroxypropylcellulose) (HPC) 103 % of control | dose: 200.0 mg/kg/injection, schedule: Q01DX001 (ip), vehicle: Klucel (hydroxypropylcellulose) (HPC) 106 % of control

O=c1cccccc1O.O=c1cccccc1O.[Cu]
inactive: dose: 1.56 mg/kg/injection, schedule: Q01DX009 (ip), vehicle: Klucel (hydroxypropylcellulose) (HPC) 97 % of control | [17] 94 % of control | dose: 6.0 mg/kg/injection, schedule: Q04DX003 (ip), vehicle: saline 94 % of control | [18] 94 % of control | dose: 12.0 mg/kg/injection, schedule: Q04DX003 (ip), vehicle: saline 95 % of control | [19] 102 % of control

CCN(C(=O)c1cc(OC)c(OC)c(OC)c1)C1CCCCC1
inactive: [8] 101 % of control | [10] 107 % of control | [15] 96 % of control

CCN(CC)C(=O)CN
inactive: [20] 103 % of control | [21] 100 % of control | [22] 103 % of control

CC(=O)NCC(=O)c1ccc(Cl)cc1
inactive: [7] 103 % of control | [8] 102 % of control | [9] 104 % of control | [10] 102 % of control | [16] 121 % of control | [15] 96 % of control

CC(=O)Nc1ccc(Cl)c(F)c1Cl
inactive: dose: 100.0 mg/kg/injection, schedule: Q04DX002 (ip), vehicle: Klucel (hydroxypropylcellulose) (HPC) 104 % of control | dose: 200.0 mg/kg/injection, schedule: Q04DX002 (ip), vehicle: Klucel (hydroxypropylcellulose) (HPC) 93 % of control | dose: 400.0 mg/kg/injection, schedule: Q04DX002 (ip), vehicle: Klucel (hydroxypropylcellulose) (HPC) 107 % of control

CC1=NC(C)(C)C(C)=C1C
inactive: [23] 91 % of control | [24] 94 % of control | [25] 91 % of control

CN(C)n1cc(C#N)c(=O)[nH]c1=O
inactive: [11] 90 % of control | [1] 90 % of control | [2] 100 % of control | [3] 100 % of control | [4] 97 % of control

C=CCOC(=O)Nc1cccc(O)c1
inactive: [25] 106 % of control | dose: 200.0 mg/kg/injection, schedule: Q04DX002 (ip), vehicle: saline with Tween-80 110 % of control | dose: 400.0 mg/kg/injection, schedule: Q04DX002 (ip), vehicle: saline with Tween-80 103 % of control

O=C1CC(Sc2ccccc2)C(=O)N1c1ccccc1 (configuration not stated)
inactive: [1] 104 % of control | [3] 100 % of control | [5] 107 % of control

O=C(O)C1CC(c2ccc(Cl)cc2)OC1=O (configuration not stated)
inactive: [20] 101 % of control | [21] 104 % of control | [22] 101 % of control

N#CCCN1CCC(=O)c2ccccc21
inactive: [14] 101 % of control | dose: 200.0 mg/kg/injection, schedule: Q01DX001 (ip), vehicle: saline 98 % of control | dose: 400.0 mg/kg/injection, schedule: Q01DX001 (ip), vehicle: saline 101 % of control

CN(C)C(=O)Nc1ccncc1
inactive: [12] 97 % of control | dose: 25.0 mg/kg/injection, schedule: Q01DX009 (ip), vehicle: saline 98 % of control and 91 % of control | [23] 93 % of control and 97 % of control | [19] 103 % of control | [13] 95 % of control | dose: 50.0 mg/kg/injection, schedule: Q01DX009 (ip), vehicle: saline 97 % of control and 88 % of control | [24] 98 % of control and 105 % of control | dose: 50.0 mg/kg/injection, schedule: Q04DX003 (ip), vehicle: saline 101 % of control

COc1ccc2cc3[n+](cc2c1OC)CCc1cc2c(cc1-3)OCO2
inactive: [17] 110 % of control | dose: 5.0 mg/kg/injection, schedule: Q01DX001 (ip), vehicle: saline 103 % of control | [18] 117 % of control | dose: 10.0 mg/kg/injection, schedule: Q01DX001 (ip), vehicle: saline 109 % of control | dose: 12.0 mg/kg/injection, schedule: Q01DX Z (ip), vehicle: saline 114 % of control | dose: 12.5 mg/kg/injection, schedule: Q01DX009 (ip), vehicle: Klucel (hydroxypropylcellulose) (HPC) 101 % of control and 106 % of control | dose: 20.0 mg/kg/injection, schedule: Q01DX001 (ip), vehicle: saline 109 % of control

NNC12CCC(c3ccccc31)c1ccccc12
inactive: dose: 100.0 mg/kg/injection, schedule: Q04DX003 (ip), vehicle: saline sonified 96 % of control | dose: 200.0 mg/kg/injection, schedule: Q04DX003 (ip), vehicle: saline sonified 101 % of control
